From PMC4522657, “Identification of a DYRK1A Inhibitor that Induces Degradation of the Target Kinase using Co-chaperone CDC37 fused with Luciferase nanoKAZ” (Scientific Reports, 2015)

What was measured:
PKACα = target: T1, PKACα (Homo sapiens, UniProt P17612); assay: Kinase panel, CaNDY 1 µM; type: biochemical; details: CaNDY 1 µM relative to DMSO
T1 construct: purchased Carna Biosciences

PAK6 = target: T2, PAK6 (Homo sapiens, UniProt Q9NQU5); assay: Kinase panel, CaNDY 1 µM; type: biochemical; details: CaNDY 1 µM relative to DMSO
T2 construct: purchased Carna Biosciences

MAP3K2_Cascade = target: T3, MAP3K2_Cascade (Homo sapiens, UniProt Q9Y2U5); assay: Kinase panel, CaNDY 1 µM; type: biochemical; details: CaNDY 1 µM relative to DMSO
T3 construct: purchased Carna Biosciences

PKCα = target: T4, PKCα (Homo sapiens, UniProt P17252); assay: Kinase panel, CaNDY 1 µM; type: biochemical; details: CaNDY 1 µM relative to DMSO
T4 construct: purchased Carna Biosciences

CaMK1α = target: T5, CaMK1α (Homo sapiens, UniProt Q14012); assay: Kinase panel, CaNDY 1 µM; type: biochemical; details: CaNDY 1 µM relative to DMSO
T5 construct: purchased Carna Biosciences

CK1γ2 = target: T6, CK1γ2 (Homo sapiens, UniProt P78368); assay: Kinase panel, CaNDY 1 µM; type: biochemical; details: CaNDY 1 µM relative to DMSO
T6 construct: purchased Carna Biosciences

PDHK2 = target: T7, PDHK2 (Homo sapiens, UniProt Q15119); assay: Kinase panel, CaNDY 1 µM; type: biochemical; details: CaNDY 1 µM relative to DMSO
T7 construct: purchased Carna Biosciences

CK2α2/β = target: T8, CK2α2/β (Homo sapiens, UniProt P19784); assay: Kinase panel, CaNDY 1 µM; type: biochemical; details: CaNDY 1 µM relative to DMSO
T8 construct: purchased Carna Biosciences

ARG = target: T9, ARG (Homo sapiens, UniProt P42684); assay: Kinase panel, CaNDY 1 µM; type: biochemical; details: CaNDY 1 µM relative to DMSO
T9 construct: purchased Carna Biosciences
Source text: (§1) Detailed information on the assay conditions is available on the website of Carna Biosciences (http://www.carnabio.com/english/index.html; Kobe, Japan). In brief, full-length human recombinant kinases were expressed using a baculovirus expression system as amino-terminal GST-fusion proteins, and purified by glutathione-Sepharose chromatography. The GenBank accession numbers of DYRK1A, DYRK1B, DYRK2, and DYRK3 were NP_001387.2, NP_004705.1, NP_003574.1, and NP_003573.2. Kinase activities were evaluated by Off-chip Mobility Shift Assay after reaction of 1 μM of the substrate DYRKtide-F with ATP (25 μM for DYRK1A, 50 μM for DYRK1B, 10 μM for DYRK2, and 5 μM for DYRK3). For each compound, a DMSO solution was diluted in assay buffer to yield a final concentration of 1% DMSO. After incubation for one hour at room temperature, substrate phosphorylation was analyzed by electrophoretic separation of the substrate and products using a Caliper LC3000 platform (Caliper Life Sciences, Mountain View, CA, USA). The phosphorylated product (P)/(P + substrate) ratio was calculated at each concentration of each small molecule and the percent inhibition was expressed relative to a control assay in the absence of the small molecule. […] The IC50 of each compound was calculated by interpolation on a log-concentration-response curve fitted with a four-parameter logistic equation.
(§2) All kinase assays were carried out at Carna Biosciences. The inhibitory map was made with Kinome Render[36].

HIPK3 = target: T10, HIPK3 (Homo sapiens, UniProt Q9H422); assay: Kinase panel, CaNDY 1 µM; type: biochemical; details: CaNDY 1 µM relative to DMSO
T10 construct: purchased Carna Biosciences
Source text: as §1, §2

LTK = target: T11, LTK (Homo sapiens, UniProt P29376); assay: Kinase panel, CaNDY 1 µM; type: biochemical; details: CaNDY 1 µM relative to DMSO
T11 construct: purchased Carna Biosciences
Source text: as §1, §2

TSSK2 = target: T12, TSSK2 (Homo sapiens, UniProt Q96PF2); assay: Kinase panel, CaNDY 1 µM; type: biochemical; details: CaNDY 1 µM relative to DMSO
T12 construct: purchased Carna Biosciences
Source text: as §1, §2

BTK = target: T13, BTK (Homo sapiens, UniProt Q06187); assay: Kinase panel, CaNDY 1 µM; type: biochemical; details: CaNDY 1 µM relative to DMSO
T13 construct: purchased Carna Biosciences
Source text: as §1, §2

CDK9/CycT1 = target: T14, CDK9/CycT1 (Homo sapiens, UniProt P50750); assay: Kinase panel, CaNDY 1 µM; type: biochemical; details: CaNDY 1 µM relative to DMSO
T14 construct: purchased Carna Biosciences
Source text: as §1, §2

p38α = target: T15, p38α (Homo sapiens, UniProt Q16539); assay: Kinase panel, CaNDY 1 µM; type: biochemical; details: CaNDY 1 µM relative to DMSO
T15 construct: purchased Carna Biosciences
Source text: as §1, §2

NDR1 = target: T16, NDR1 (Homo sapiens, UniProt Q15208); assay: Kinase panel, CaNDY 1 µM; type: biochemical; details: CaNDY 1 µM relative to DMSO
T16 construct: purchased Carna Biosciences
Source text: as §1, §2

BLK = target: T17, BLK (Homo sapiens, UniProt P51451); assay: Kinase panel, CaNDY 1 µM; type: biochemical; details: CaNDY 1 µM relative to DMSO
T17 construct: purchased Carna Biosciences
Source text: as §1, §2

MARK4 = target: T18, MARK4 (Homo sapiens, UniProt Q96L34); assay: Kinase panel, CaNDY 1 µM; type: biochemical; details: CaNDY 1 µM relative to DMSO
T18 construct: purchased Carna Biosciences
Source text: as §1, §2

AKT1 = target: T19, AKT1 (Homo sapiens, UniProt P31749); assay: Kinase panel, CaNDY 1 µM; type: biochemical; details: CaNDY 1 µM relative to DMSO
T19 construct: purchased Carna Biosciences
Source text: as §1, §2

ALK(L1196M) = target: T20, ALK(L1196M) (Homo sapiens, UniProt Q9UM73, L1196M); assay: Kinase panel, CaNDY 1 µM; type: biochemical; details: CaNDY 1 µM relative to DMSO
T20 construct: purchased Carna Biosciences
Source text: as §1, §2

TSSK3 = target: T21, TSSK3 (Homo sapiens, UniProt Q96PN8); assay: Kinase panel, CaNDY 1 µM; type: biochemical; details: CaNDY 1 µM relative to DMSO
T21 construct: purchased Carna Biosciences
Source text: as §1, §2

MRCKα = target: T22, MRCKα (Homo sapiens, UniProt Q5VT25); assay: Kinase panel, CaNDY 1 µM; type: biochemical; details: CaNDY 1 µM relative to DMSO
T22 construct: purchased Carna Biosciences
Source text: as §1, §2

SRPK2 = target: T23, SRPK2 (Homo sapiens, UniProt P78362); assay: Kinase panel, CaNDY 1 µM; type: biochemical; details: CaNDY 1 µM relative to DMSO
T23 construct: purchased Carna Biosciences
Source text: as §1, §2

NEK7 = target: T24, NEK7 (Homo sapiens, UniProt Q8TDX7); assay: Kinase panel, CaNDY 1 µM; type: biochemical; details: CaNDY 1 µM relative to DMSO
T24 construct: purchased Carna Biosciences
Source text: as §1, §2

FGFR4 = target: T25, FGFR4 (Homo sapiens, UniProt P22455); assay: Kinase panel, CaNDY 1 µM; type: biochemical; details: CaNDY 1 µM relative to DMSO
T25 construct: purchased Carna Biosciences

MLK2_Cascade = target: T26, MLK2_Cascade (Homo sapiens, UniProt Q02779); assay: Kinase panel, CaNDY 1 µM; type: biochemical; details: CaNDY 1 µM relative to DMSO
T26 construct: purchased Carna Biosciences

IRAK4 = target: T27, IRAK4 (Homo sapiens, UniProt Q9NWZ3); assay: Kinase panel, CaNDY 1 µM; type: biochemical; details: CaNDY 1 µM relative to DMSO
T27 construct: purchased Carna Biosciences

other 19 kinases = assay: Western blot of other kinases in HEK293 cells; type: cell-based; details: CaNDY 2 μM, 4 days
Method: To check selectivity of CaNDY for other kinases, we first examined protein expression of several kinases in HEK293 cells treated with CaNDY (2 μM) for 4 days. […] Third, protein expression of these kinases targeted by CaNDY (DYRK1A, DYRK1B, CLK1, and Haspin) was reassessed by Western blot analysis as performed in Fig. 7b.
Western blot analysis was performed using the antibodies described above. In brief, total cell lysates were separated by SDS-PAGE (5–20% gels; ATTO, Tokyo, Japan) under reducing conditions and then transferred to a PVDF membrane (PALL, SP, Brazil). Antibody reactions were performed with Can Get Signal® Immunoreaction Enhancer Solution (Toyobo). Peroxidase activities on the membrane were visualized with ECL Western Blotting Detection Reagents (GE Healthcare) or ImmunoStar® LD (Wako Pure Chemical Industries, Osaka, Japan), and a ChemiDoc^TM MP Imaging System (Bio-Rad, Hercules, CA, USA).

RET(S891A) = target: T28, RET(S891A) (Homo sapiens, UniProt P07949, S891A); assay: Kinase panel, CaNDY 1 µM; type: biochemical; details: CaNDY 1 µM relative to DMSO
T28 construct: purchased Carna Biosciences

MAP3K1_Cascade = target: T29, MAP3K1_Cascade (Homo sapiens, UniProt Q13233); assay: Kinase panel, CaNDY 1 µM; type: biochemical; details: CaNDY 1 µM relative to DMSO
T29 construct: purchased Carna Biosciences

T23 sequence (P78362 whole entry): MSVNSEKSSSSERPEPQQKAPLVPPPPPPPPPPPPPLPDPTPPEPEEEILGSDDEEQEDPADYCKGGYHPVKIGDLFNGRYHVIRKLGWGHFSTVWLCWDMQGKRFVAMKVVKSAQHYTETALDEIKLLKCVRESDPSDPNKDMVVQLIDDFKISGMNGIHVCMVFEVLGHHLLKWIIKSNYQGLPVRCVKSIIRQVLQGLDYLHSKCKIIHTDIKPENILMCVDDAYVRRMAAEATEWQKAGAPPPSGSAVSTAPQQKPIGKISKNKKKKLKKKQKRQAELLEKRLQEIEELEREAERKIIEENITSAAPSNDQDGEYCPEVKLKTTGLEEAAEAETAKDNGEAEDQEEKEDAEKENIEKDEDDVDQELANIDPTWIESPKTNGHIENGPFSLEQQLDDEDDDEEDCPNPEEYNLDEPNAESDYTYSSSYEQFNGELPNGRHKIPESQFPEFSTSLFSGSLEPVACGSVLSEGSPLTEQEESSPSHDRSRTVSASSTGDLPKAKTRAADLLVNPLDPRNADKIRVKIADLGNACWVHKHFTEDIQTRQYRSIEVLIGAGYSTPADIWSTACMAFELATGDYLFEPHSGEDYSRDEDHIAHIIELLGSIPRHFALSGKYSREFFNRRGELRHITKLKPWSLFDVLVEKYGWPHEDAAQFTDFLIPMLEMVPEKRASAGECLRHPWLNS
T17 sequence (P51451 whole entry): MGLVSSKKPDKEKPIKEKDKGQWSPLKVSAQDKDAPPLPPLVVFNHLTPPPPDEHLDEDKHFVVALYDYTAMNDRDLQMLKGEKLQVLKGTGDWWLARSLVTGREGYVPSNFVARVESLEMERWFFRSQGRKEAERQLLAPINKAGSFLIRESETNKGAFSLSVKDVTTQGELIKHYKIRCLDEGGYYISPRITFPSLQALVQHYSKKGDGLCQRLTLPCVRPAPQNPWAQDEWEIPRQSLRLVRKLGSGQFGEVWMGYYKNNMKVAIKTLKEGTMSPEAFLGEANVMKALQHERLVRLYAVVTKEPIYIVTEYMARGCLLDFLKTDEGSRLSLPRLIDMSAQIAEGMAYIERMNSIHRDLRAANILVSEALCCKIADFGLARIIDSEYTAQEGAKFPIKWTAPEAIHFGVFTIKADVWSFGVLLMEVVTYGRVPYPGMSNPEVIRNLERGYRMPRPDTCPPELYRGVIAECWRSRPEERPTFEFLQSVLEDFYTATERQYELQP
T24 sequence (Q8TDX7 whole entry): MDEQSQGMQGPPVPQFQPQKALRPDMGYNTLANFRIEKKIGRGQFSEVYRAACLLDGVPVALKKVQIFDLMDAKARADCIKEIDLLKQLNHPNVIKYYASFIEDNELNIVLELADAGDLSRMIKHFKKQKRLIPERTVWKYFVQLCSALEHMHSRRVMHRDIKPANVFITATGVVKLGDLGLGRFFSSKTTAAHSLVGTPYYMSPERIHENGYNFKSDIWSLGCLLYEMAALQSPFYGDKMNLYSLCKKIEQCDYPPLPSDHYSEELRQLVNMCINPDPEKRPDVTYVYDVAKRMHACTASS
T16 sequence (Q15208 whole entry): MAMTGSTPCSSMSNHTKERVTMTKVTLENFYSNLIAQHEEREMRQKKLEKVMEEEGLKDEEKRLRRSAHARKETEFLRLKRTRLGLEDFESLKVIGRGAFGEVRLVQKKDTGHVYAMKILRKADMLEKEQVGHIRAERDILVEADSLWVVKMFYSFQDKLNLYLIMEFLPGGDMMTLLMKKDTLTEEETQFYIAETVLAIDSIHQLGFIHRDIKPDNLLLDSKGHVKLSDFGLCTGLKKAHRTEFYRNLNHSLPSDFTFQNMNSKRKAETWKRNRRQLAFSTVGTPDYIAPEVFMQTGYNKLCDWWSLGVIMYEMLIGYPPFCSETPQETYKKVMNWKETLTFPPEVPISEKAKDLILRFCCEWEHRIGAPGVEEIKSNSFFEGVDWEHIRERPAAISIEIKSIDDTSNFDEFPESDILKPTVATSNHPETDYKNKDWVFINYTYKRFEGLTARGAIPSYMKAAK
T19 sequence (P31749 whole entry): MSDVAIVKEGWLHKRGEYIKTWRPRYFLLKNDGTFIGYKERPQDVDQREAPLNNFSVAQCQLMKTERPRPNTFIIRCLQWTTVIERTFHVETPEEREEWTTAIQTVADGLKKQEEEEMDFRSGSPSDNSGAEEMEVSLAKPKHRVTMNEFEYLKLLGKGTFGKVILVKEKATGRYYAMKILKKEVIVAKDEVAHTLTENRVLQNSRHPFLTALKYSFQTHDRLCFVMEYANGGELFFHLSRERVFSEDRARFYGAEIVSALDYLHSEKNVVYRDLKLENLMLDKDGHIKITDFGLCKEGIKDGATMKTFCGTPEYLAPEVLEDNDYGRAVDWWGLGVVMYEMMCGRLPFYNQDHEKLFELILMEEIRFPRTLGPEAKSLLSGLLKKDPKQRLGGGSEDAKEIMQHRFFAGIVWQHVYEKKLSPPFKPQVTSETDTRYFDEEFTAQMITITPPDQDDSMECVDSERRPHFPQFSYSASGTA
T14 sequence (P50750 whole entry): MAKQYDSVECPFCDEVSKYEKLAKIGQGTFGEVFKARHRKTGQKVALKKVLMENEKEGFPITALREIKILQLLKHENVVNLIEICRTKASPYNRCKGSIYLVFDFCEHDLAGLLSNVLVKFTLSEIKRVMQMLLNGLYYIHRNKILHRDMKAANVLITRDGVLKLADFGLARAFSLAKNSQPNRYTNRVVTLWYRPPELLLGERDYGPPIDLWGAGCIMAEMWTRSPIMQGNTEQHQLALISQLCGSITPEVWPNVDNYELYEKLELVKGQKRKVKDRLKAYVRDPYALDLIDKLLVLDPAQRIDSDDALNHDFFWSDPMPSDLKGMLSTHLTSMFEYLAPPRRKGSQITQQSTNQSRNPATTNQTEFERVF
T14 sequence (O60563 whole entry partner): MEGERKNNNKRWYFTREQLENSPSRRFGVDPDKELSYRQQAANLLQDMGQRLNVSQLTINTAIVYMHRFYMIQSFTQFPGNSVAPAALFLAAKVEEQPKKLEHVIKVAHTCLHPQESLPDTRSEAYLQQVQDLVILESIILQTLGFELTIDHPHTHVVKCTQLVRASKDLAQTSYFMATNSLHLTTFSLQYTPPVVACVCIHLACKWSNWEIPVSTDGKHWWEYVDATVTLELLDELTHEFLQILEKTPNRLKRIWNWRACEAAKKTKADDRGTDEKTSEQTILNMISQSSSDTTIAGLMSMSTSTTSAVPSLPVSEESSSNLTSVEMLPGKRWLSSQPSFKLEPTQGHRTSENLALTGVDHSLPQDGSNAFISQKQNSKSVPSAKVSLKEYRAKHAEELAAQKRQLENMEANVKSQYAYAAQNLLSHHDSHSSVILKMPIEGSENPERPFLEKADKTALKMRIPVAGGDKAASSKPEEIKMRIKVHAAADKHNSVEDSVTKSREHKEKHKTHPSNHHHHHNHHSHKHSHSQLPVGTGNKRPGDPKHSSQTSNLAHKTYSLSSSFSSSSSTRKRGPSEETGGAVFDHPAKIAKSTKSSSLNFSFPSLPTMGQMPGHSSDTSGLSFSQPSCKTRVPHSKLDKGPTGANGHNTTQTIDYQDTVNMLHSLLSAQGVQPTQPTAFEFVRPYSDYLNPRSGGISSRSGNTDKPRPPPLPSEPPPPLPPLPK
T15 sequence (Q16539 whole entry): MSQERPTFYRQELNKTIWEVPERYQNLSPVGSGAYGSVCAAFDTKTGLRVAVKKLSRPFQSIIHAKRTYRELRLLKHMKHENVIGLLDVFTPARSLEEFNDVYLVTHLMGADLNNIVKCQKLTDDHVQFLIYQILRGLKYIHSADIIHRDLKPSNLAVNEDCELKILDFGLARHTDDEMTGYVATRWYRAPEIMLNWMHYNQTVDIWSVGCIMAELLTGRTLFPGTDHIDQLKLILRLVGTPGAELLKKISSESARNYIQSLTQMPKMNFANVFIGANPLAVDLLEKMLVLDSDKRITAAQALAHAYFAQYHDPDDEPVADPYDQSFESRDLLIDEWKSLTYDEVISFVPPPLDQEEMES
T21 sequence (Q96PN8 whole entry): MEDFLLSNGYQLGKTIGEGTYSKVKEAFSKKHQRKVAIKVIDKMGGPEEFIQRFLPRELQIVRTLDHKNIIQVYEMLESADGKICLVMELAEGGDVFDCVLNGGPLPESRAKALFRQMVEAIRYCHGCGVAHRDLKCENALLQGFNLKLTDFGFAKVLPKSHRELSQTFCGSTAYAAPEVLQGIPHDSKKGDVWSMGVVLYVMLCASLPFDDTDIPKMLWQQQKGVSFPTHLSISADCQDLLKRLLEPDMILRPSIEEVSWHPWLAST

Question: How did the remaining activity at 1 µM (PKACα) turn out when `[H]/N=C1/NC(=O)C(=Cc2ccc3c(c2)CCO3)S1` [CaNDY, (Z)-5-[(2,3-dihydrobenzofuran-5-yl)methylene]-2-iminothiazolidin-4-one] was run?
Answer: 88.9%

Question: What about the remaining activity at 1 µM (PAK6) of the same compound?
Answer: 101%

Question: And the remaining activity at 1 µM (MAP3K2_Cascade)?
Answer: 102%

Question: And the remaining activity at 1 µM (PKCα)?
Answer: 82.4%

Question: What about the remaining activity at 1 µM (CaMK1α) of the same compound?
Answer: 100%

Question: And the “%Activity” value (CK1γ2)?
Answer: 75.4%

Question: What about the remaining activity at 1 µM (PDHK2) of the same compound?
Answer: 91.6%

Question: And the remaining activity at 1 µM (CK2α2/β)?
Answer: 23.4%

Question: And the remaining activity at 1 µM (ARG)?
Answer: 98.8%

Question: What about the remaining activity at 1 µM (HIPK3) of the same compound?
Answer: 22.4%

Question: And the remaining activity at 1 µM (LTK)?
Answer: 96.9%

Question: What about the remaining activity at 1 µM (TSSK2) of the same compound?
Answer: 102%

Question: What about the “%Activity” value (BTK) of the same compound?
Answer: 85.7%

Question: And the remaining activity at 1 µM (CDK9/CycT1)?
Answer: 19.4%

Question: What about the “%Activity” value (p38α) of the same compound?
Answer: 95.9%

Question: And the remaining activity at 1 µM (NDR1)?
Answer: 91.8%

Question: What about the remaining activity at 1 µM (BLK) of the same compound?
Answer: 101%

Question: And the “%Activity” value (MARK4)?
Answer: 94.3%

Question: And the remaining activity at 1 µM (AKT1)?
Answer: 104%

Question: And the remaining activity at 1 µM (ALK(L1196M))?
Answer: 97.8%

Question: And the remaining activity at 1 µM (TSSK3)?
Answer: 110%

Question: What about the remaining activity at 1 µM (MRCKα) of the same compound?
Answer: 128%

Question: What about the remaining activity at 1 µM (SRPK2) of the same compound?
Answer: 96.6%

Question: And the remaining activity at 1 µM (NEK7)?
Answer: 102%

Question: What about the remaining activity at 1 µM (FGFR4) of the same compound?
Answer: 107%

Question: What about the remaining activity at 1 µM (MLK2_Cascade) of the same compound?
Answer: 124%

Question: What about the “%Activity” value (IRAK4) of the same compound?
Answer: 100.8%

Question: What about the “protein expression of other kinases” value (other 19 kinases) of the same compound?
Answer: did not decrease the other 19 kinases

Question: What about the remaining activity at 1 µM (RET(S891A)) of the same compound?
Answer: 103%

Question: What about the remaining activity at 1 µM (MAP3K1_Cascade) of the same compound?
Answer: 99%
